# Experimental data taken from PubChem BioAssay (NCI).
#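 Assay format: 96-well plates, 48-hour exposure. The concentration for full growth arrest is given as TGI.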
# Experiments:
# Assay in all cases: NCI tumour cell line growth inhibition, 48 h
# [1] = system: HOP-62 NSCLC
# [2] = system: SNB-78 CNS
# [3] = system: SF-539 CNS
# [4] = system: U251 CNS
# [5] = system: SF-295 CNS
# [6] = system: RXF-631 renal
# [7] = system: UACC-257 melanoma
# [8] = system: CCRF-CEM leukemia
# [9] = system: TK-10 renal
# [10] = system: DLD-1 colon
# [11] = system: SW-620 colon
# [12] = system: NCI-H460 lung
# [13] = system: SK-MEL-28 melanoma
# [14] = system: CAKI-1 renal
# [15] = system: RPMI-8226 leukemia
# [16] = system: OVCAR-8 ovarian
# [17] = system: 786-0 renal
# [18] = system: KM12 colon
# [19] = system: OVCAR-5 ovarian
# [20] = system: ACHN renal
# [21] = system: MOLT-4 leukemia
# [22] = system: IGROV1 ovarian
# [23] = system: HCT-116 colon
# [24] = system: A549 NSCLC
# [25] = system: LXFL 529 NSCLC
# [26] = system: EKVX NSCLC
# [27] = system: NCI-H23 lung
# [28] = system: SNB-75 CNS
# [29] = system: K-562 leukemia
# [30] = system: HCC-2998 colon
# [31] = system: LOX IMVI melanoma
# [32] = system: HOP-92 NSCLC
# [33] = system: RXF 393 renal
# [34] = system: SK-OV-3 ovarian
# [35] = system: HL-60(TB) leukemia
# [36] = system: MALME-3M melanoma
# [37] = system: NCI-H522 lung
# [38] = system: M14 melanoma
# [39] = system: UO-31 renal
# [40] = system: DMS 114 small cell lung
# [41] = system: HOP-18 NSCLC
# [42] = system: SK-MEL-2 melanoma
# [43] = system: NCI-H226 lung
# [44] = system: UACC-62 melanoma
# [45] = system: M19-MEL melanoma
# [46] = system: SNB-19 CNS
# [47] = system: OVCAR-4 ovarian
# [48] = system: A498 renal
# [49] = system: SN12C renal
# [50] = system: SF-268 CNS
# [51] = system: KM20L2 colon
# [52] = system: SR leukemia
# [53] = system: HT29 colon
# [54] = system: SK-MEL-5 melanoma
# [55] = system: HCT-15 colon
# [56] = system: DMS 273 small cell lung
# [57] = system: OVCAR-3 ovarian
# [58] = system: COLO 205 colon
# [59] = system: XF 498 CNS
# [60] = system: NCI/ADR-RES ovarian
# [61] = system: P388/ADR leukemia
# [62] = system: SN12K1 renal
# [63] = system: P388 leukemia
# [64] = system: MCF7 breast
smiles,measurement,setting,value
C1CCN(c2nsc(N3CCCCC3)n2)CC1,TGI,[1],> 100 µM
same,TGI,[2],> 100 µM
same,TGI,[3],> 100 µM
same,TGI,[4],> 100 µM
same,TGI,[5],> 100 µM
same,TGI,[6],> 100 µM
same,TGI,[7],> 100 µM
same,TGI,[8],> 100 µM
same,TGI,[9],> 100 µM
same,TGI,[10],> 100 µM
same,TGI,[11],> 100 µM
same,TGI,[12],> 100 µM
same,TGI,[13],> 100 µM
same,TGI,[14],> 100 µM
same,TGI,[15],> 100 µM
same,TGI,[16],> 100 µM
same,TGI,[17],> 100 µM
same,TGI,[18],> 100 µM
same,TGI,[19],> 100 µM
same,TGI,[20],> 100 µM
same,TGI,[21],> 100 µM
same,TGI,[22],> 100 µM
same,TGI,[23],> 100 µM
same,TGI,[24],> 100 µM
same,TGI,[25],> 100 µM
same,TGI,[26],> 100 µM
same,TGI,[27],> 100 µM
same,TGI,[28],> 100 µM
same,TGI,[29],> 100 µM
same,TGI,[30],> 100 µM
same,TGI,[31],> 100 µM
same,TGI,[32],> 100 µM
same,TGI,[33],> 100 µM
same,TGI,[34],> 100 µM
same,TGI,[35],> 100 µM
same,TGI,[36],> 100 µM
same,TGI,[37],> 100 µM
same,TGI,[38],> 100 µM
same,TGI,[39],> 100 µM
same,TGI,[40],> 100 µM
same,TGI,[41],> 100 µM
same,TGI,[42],> 100 µM
same,TGI,[43],> 100 µM
same,TGI,[44],> 100 µM
same,TGI,[45],> 100 µM
same,TGI,[46],> 100 µM
same,TGI,[47],> 100 µM
same,TGI,[48],> 100 µM
same,TGI,[49],> 100 µM
same,TGI,[50],> 100 µM
same,TGI,[51],> 100 µM
same,TGI,[52],> 100 µM
same,TGI,[53],> 100 µM
same,TGI,[54],> 100 µM
same,TGI,[55],> 100 µM
same,TGI,[56],> 100 µM
COc1cccc(NC(=O)CC(=O)N2N=C(N(CCC#N)c3ccccc3C)CC2c2ccccc2)c1 (stereo unspecified),TGI,[1],> 100 µM
same,TGI,[2],> 100 µM
same,TGI,[3],> 100 µM
same,TGI,[4],> 100 µM
same,TGI,[5],> 100 µM
same,TGI,[6],> 100 µM
same,TGI,[7],> 100 µM
same,TGI,[8],> 100 µM
same,TGI,[10],> 100 µM
same,TGI,[11],> 100 µM
same,TGI,[12],> 100 µM
same,TGI,[13],> 100 µM
same,TGI,[14],> 100 µM
same,TGI,[15],> 100 µM
same,TGI,[16],> 100 µM
same,TGI,[17],> 100 µM
same,TGI,[18],> 100 µM
same,TGI,[19],> 100 µM
same,TGI,[20],> 100 µM
same,TGI,[21],> 100 µM
same,TGI,[22],> 100 µM
same,TGI,[23],> 100 µM
same,TGI,[24],> 100 µM
same,TGI,[25],> 100 µM
same,TGI,[26],> 100 µM
same,TGI,[27],> 100 µM
same,TGI,[28],> 100 µM
same,TGI,[29],> 100 µM
same,TGI,[30],> 100 µM
same,TGI,[32],> 100 µM
same,TGI,[33],> 100 µM
same,TGI,[34],> 100 µM
same,TGI,[35],> 100 µM
same,TGI,[36],> 100 µM
same,TGI,[37],> 100 µM
same,TGI,[38],> 100 µM
same,TGI,[39],> 100 µM
same,TGI,[40],> 100 µM
same,TGI,[57],> 100 µM
same,TGI,[41],> 100 µM
same,TGI,[42],> 100 µM
same,TGI,[43],> 100 µM
same,TGI,[44],> 100 µM
same,TGI,[58],> 100 µM
same,TGI,[45],> 100 µM
same,TGI,[46],> 100 µM
same,TGI,[47],> 100 µM
same,TGI,[49],> 100 µM
same,TGI,[50],> 100 µM
same,TGI,[51],> 100 µM
same,TGI,[52],> 100 µM
same,TGI,[53],> 100 µM
same,TGI,[54],> 100 µM
same,TGI,[55],> 100 µM
same,TGI,[56],> 100 µM
CC(=O)OCCOCNC(=S)N/N=C(\C)c1cnc2ccccc2n1,TGI,[1],> 100 µM
same,TGI,[2],> 100 µM
same,TGI,[3],> 100 µM
same,TGI,[4],> 100 µM
same,TGI,[5],> 100 µM
same,TGI,[7],> 100 µM
same,TGI,[8],90.2 µM
same,TGI,[9],> 100 µM
same,TGI,[10],> 100 µM
same,TGI,[11],> 100 µM
same,TGI,[12],> 100 µM
same,TGI,[13],> 100 µM
same,TGI,[15],> 100 µM
same,TGI,[16],> 100 µM
same,TGI,[17],> 100 µM
same,TGI,[18],> 100 µM
same,TGI,[19],61.3 µM
same,TGI,[20],> 100 µM
same,TGI,[21],> 100 µM
same,TGI,[22],> 100 µM
same,TGI,[59],> 100 µM
same,TGI,[23],> 100 µM
same,TGI,[24],> 100 µM
same,TGI,[25],> 100 µM
same,TGI,[26],> 100 µM
same,TGI,[27],> 100 µM
same,TGI,[28],> 100 µM
same,TGI,[29],> 100 µM
same,TGI,[30],> 100 µM
same,TGI,[31],> 100 µM
same,TGI,[33],> 100 µM
same,TGI,[34],> 100 µM
same,TGI,[35],80.8 µM
same,TGI,[36],> 100 µM
same,TGI,[37],76.7 µM
same,TGI,[38],> 100 µM
same,TGI,[39],> 100 µM
same,TGI,[40],47.4 µM
same,TGI,[57],> 100 µM
same,TGI,[41],> 100 µM
same,TGI,[42],> 100 µM
same,TGI,[43],> 100 µM
same,TGI,[44],39.7 µM
same,TGI,[58],36.9 µM
same,TGI,[45],77.1 µM
same,TGI,[46],> 100 µM
same,TGI,[47],> 100 µM
same,TGI,[48],> 100 µM
same,TGI,[49],> 100 µM
same,TGI,[50],> 100 µM
same,TGI,[51],> 100 µM
same,TGI,[52],> 100 µM
same,TGI,[53],> 100 µM
same,TGI,[54],> 100 µM
same,TGI,[55],> 100 µM
same,TGI,[56],> 100 µM
CCCCCCCCCCCCCCCCSCC(COC)COP(=O)([O-])OCC[N+](C)(C)C (stereo unspecified),TGI,[1],15.6 µM
same,TGI,[2],26.1 µM
same,TGI,[3],29.7 µM
same,TGI,[4],4.37 µM
same,TGI,[5],11.6 µM
same,TGI,[7],28.8 µM
same,TGI,[8],10.1 µM
same,TGI,[60],30 µM
same,TGI,[10],11.2 µM
same,TGI,[11],17.7 µM
same,TGI,[12],6.2 µM
same,TGI,[13],29.5 µM
same,TGI,[14],12.7 µM
same,TGI,[15],8.48 µM
same,TGI,[16],22.3 µM
same,TGI,[18],2.45 µM
same,TGI,[19],26 µM
same,TGI,[61],15.2 µM
same,TGI,[21],6.05 µM
same,TGI,[22],4.77 µM
same,TGI,[59],19.8 µM
same,TGI,[23],18.7 µM
same,TGI,[24],20.5 µM
same,TGI,[26],28.4 µM
same,TGI,[62],24.2 µM
same,TGI,[27],28.2 µM
same,TGI,[63],5.26 µM
same,TGI,[28],14.3 µM
same,TGI,[29],28 µM
same,TGI,[30],3.56 µM
same,TGI,[31],17.4 µM
same,TGI,[32],5.18 µM
same,TGI,[64],26.7 µM
same,TGI,[33],15.5 µM
same,TGI,[34],28.6 µM
same,TGI,[35],4.4 µM
same,TGI,[36],29.4 µM
same,TGI,[37],10.9 µM
same,TGI,[39],20.3 µM
same,TGI,[40],20.8 µM
same,TGI,[57],17 µM
same,TGI,[41],16.5 µM
same,TGI,[42],29.6 µM
same,TGI,[43],9.24 µM
same,TGI,[44],19.6 µM
same,TGI,[58],3.96 µM
same,TGI,[45],11 µM
same,TGI,[46],9.6 µM
same,TGI,[47],15.3 µM
same,TGI,[48],19.1 µM
same,TGI,[49],11.3 µM
same,TGI,[50],20.5 µM
same,TGI,[53],12.8 µM
same,TGI,[54],25.2 µM
same,TGI,[55],10.3 µM
same,TGI,[56],3.9 µM
CN(CN1C(=O)C2Cc3ccccc3CN2C1=O)c1ccccn1 (stereo unspecified),TGI,[1],> 100 µM
same,TGI,[3],> 100 µM
same,TGI,[4],> 100 µM
same,TGI,[5],> 100 µM
same,TGI,[8],> 100 µM
same,TGI,[9],> 100 µM
same,TGI,[10],> 100 µM
same,TGI,[11],> 100 µM
same,TGI,[12],> 100 µM
same,TGI,[13],> 100 µM
same,TGI,[14],> 100 µM
same,TGI,[15],> 100 µM
same,TGI,[16],> 100 µM
same,TGI,[17],> 100 µM
same,TGI,[18],> 100 µM
same,TGI,[19],> 100 µM
same,TGI,[20],> 100 µM
same,TGI,[21],> 100 µM
same,TGI,[22],> 100 µM
same,TGI,[59],> 100 µM
same,TGI,[24],> 100 µM
same,TGI,[25],> 100 µM
same,TGI,[27],> 100 µM
same,TGI,[29],> 100 µM
same,TGI,[30],> 100 µM
same,TGI,[31],> 100 µM
same,TGI,[35],> 100 µM
same,TGI,[36],> 100 µM
same,TGI,[37],> 100 µM
same,TGI,[38],> 100 µM
same,TGI,[39],> 100 µM
same,TGI,[40],> 100 µM
same,TGI,[57],> 100 µM
same,TGI,[42],> 100 µM
same,TGI,[43],> 100 µM
same,TGI,[44],> 100 µM
same,TGI,[58],> 100 µM
same,TGI,[45],> 100 µM
same,TGI,[46],> 100 µM
same,TGI,[47],> 100 µM
same,TGI,[48],> 100 µM
same,TGI,[49],> 100 µM
same,TGI,[50],> 100 µM
same,TGI,[51],> 100 µM
same,TGI,[52],> 100 µM
same,TGI,[54],> 100 µM
same,TGI,[55],> 100 µM
same,TGI,[56],> 100 µM
